Laboratory results published in patent US20020082273A1, “Agents for use in the treatment of alzheimer's disease” (priority 1998, published 2002).
Where “and” joins values, the source holds several entries; their conditions need not be identical. Equal entries are not always repeated. Entries after “also recorded” stand apart in the source; their conditions may differ.

Experiments:
[1] = TBARS assay of OH.; format: biochemical; settings: scavenger 5 mM; Fe^3+ or Cu^2+
Experimental: All data points are means ±SD, n=3.
The Thiobarbituric Acid-Reactive Substance (TBARS) assay for incubation mixtures with Fe^3+ or Cu^2+ was performed in a 96-well microtiter format modified from established protocols (Gutteridge et al. Biochim. Biophys. Acta 759: 38-41 (1983)). Aβ peptide species (10 μM) or Vitamin C (100 μM), were incubated with Fe^3+ or Cu^2+ (1 μM) and deoxyribose (7.5 mM, Sigma) in PBS, pH 7.4. Following incubation (37° C., 1 hour), glacial (17 M) acetic acid and 2-thiobarburic acid (1%, w/v in 0.05 M NaOH, Sigma) were added and heated (100° C., 10 min). The final mixtures were placed on ice for 1-3 minutes before absorbances at 532 nm were measured. The net absorbance change for each sample were obtained by deducting the absorbance from a control sample consisting of identical chemical components except for the Vitamin C or Aβ peptides.

[2] = system: Aβ; assay: Effect of agents on Cu^2+-induced SDS-resistant Aβ polymerization; format: biochemical, human
Experimental: Cu^2+-induced SDS-resistant oligomerization of Aβ: Aβ (2.5 μM), 150 mM NaCl, 20 mM hepes (pH 6.6, 7.4, 9) with or without ZnCl2 or CuCl2. Following incubation (37° C.), aliquots of each reaction (2 ng peptide) were collected at 0 d, 1 d, 3 d and 5 d and western blotted using anti-Aβ monoclonal antibody 8E10 (FIG. 9). Migration of the molecular size markers are indicated (kDa). […] Cu^2+ (2-30 μM) induced SDS-resistant polymerization of peptide. […] It should be noted that other means of visualizing and/or determining the presence or absence of polymerization other than western blot analysis may be used. Such other means include but are not limited to density sedimentation by centrifugation of the samples.
It is possible that the decreased polymerization may be due to chelation of Cu^2+ by BC, however given the low binding affinity of BC for Cu^2+ compared with Aβ, it seems likely that the chelation of Cu^+ by BC prevents it from inducing SDS-resistant Ad polymerization. Therefore, Aβ may undergo a hydroxyl radical modification that promotes its assembly into SDS-resistant polymers.

[3] = Table 5, NIST database, cited from earlier work
[4] = Table 5; NIST database; cited from earlier work
[5] = Table 5; NIST database; cited from earlier work; remark: listed apart in the source
[6] = Residual metals in post-centrifugation pellets of brain homogenates (ICP-AES); format: biochemical, human; settings: Table 6
[7] = molecular target: Aβ1-42 (Homo sapiens, UniProt P05067); assay: Effect of metal chelators on H2O2 production from Aβ1-42; format: biochemical
Chain of Aβ1-42 (P05067 672-713 limits assumed): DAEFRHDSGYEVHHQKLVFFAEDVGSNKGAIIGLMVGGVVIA

[8] = system: Aβ deposits of AD-affected brain; assay: Extraction (solubilization) of Aβ from post-mortem AD brain tissue homogenates, western blot densitometry; format: biochemical, human
Experimental: Identical regions of frontal cortex (0.5 g) from post-mortem brains of individuals with AD, as well as non-AD conditions, were homogenized in TBS, […] ±metal chelators.
0.5 g of prefrontal cortex was dissected and homogenized in PBS ±chelator as indicated. The homogenate was then centrifuged (100,000 g) and the supernatant removed, and a sample taken for western blot assay using anti-Aβ specific antibodies after Tricine PAGE. Densitometry was performed against synthetic peptide standards.
Densitometry of Aβ western blots (FIGS. 19A-19C) was performed for a series of 6 AD brain samples homogenized in the presence of chelators as indicated.
Next the ability of clioquinol to extract Aβ deposits from human brain was examined. […] Fragments of prefrontal cortex from individual post-mortem samples with the histopathological diagnosis of AD were homogenized in PBS, pH 7.4, and then pelleted after centrifugation. The pellets were then washed with agitation twice for 30 minutes, 4° C., with PBS or PBS containing clioquinol (100% =0.8 μM clioquinol). The suspension was then pelleted (10,000 g for 30 minutes) and the supernatant removed (S1) for western blot analysis using Aβ-specific antibodies (illustrated). The pellet was treated a second time in this experiment with agitation and centrifugation, and the second supernatant (S2) analysed.
Soluble Aβ (ng/g tissue) was determined as described. Total Aβ was determined following formic acid extraction of otherwise untreated tissue.
(§1) Suitable quantities of gray matter from each subject were minced to serve as pools of homogenous tissue. […] To obtain the soluble fraction, the homogenates were centrifuged at 100,000× g for 30 min (Beckman J180, Beckman instruments, Fullerton, California) and the supernatant collected in 1 ml aliquots and stored on ice or immediately frozen at −70° C. In each experiment, all protein was precipitated from 1 ml of supernatant from each treatment group using 1:5 ice cold 10% trichloracetic acid and pelleted in a bench top microfuge (Heraeus, Osteroder, Germany) at 10,000× g. The remaining pellet was frozen at −70° C.
Precipitated protein was subjected to SDS polyacrylamide gel electrophoresis (SDS-PAGE) on Novex pre-cast 10-20% Tris-Tricine gels followed by Western transfer onto 0.2 μm nitrocellulose membrane (Biorad, Hercules, Calif.). […] Each gel included two or more lanes containing known quantities of synthetic Aβ which served as internal reference standards. Blot images were captured by a Relisys scanner with transparency adapter (Teco Information Systems, Taiwan, ROC) and densitometry conducted using the NIH Image 1.6 program (National Institutes for Health, USA. Modified for PC by Scion Corporation, Frederick, Md.), calibrated using a step diffusion chart. For quantitation of Aβ in brain extracts, the internal reference standards of synthetic Aβ were utilized to produce standard curves from which values were interpolated.

[9] = system: Aβ deposits of age-matched control brain; assay: Extraction of Aβ from age-matched non-AD control brain tissue; format: biochemical, human
Experimental: as §1
Precipitated protein was subjected to SDS polyacrylamide gel electrophoresis (SDS-PAGE) on Novex pre-cast 10-20% Tris-Tricine gels followed by Western transfer onto 0.2 μm nitrocellulose membrane (Biorad, Hercules, Calif.). Aβ was detected using the WO2, G210 or G211 monoclonal antibodies (Ida, N., et al., J. Biol. Chem., 271:22908 (1996)) in combination with HRP-conjugated rabbit anti-mouse IgG (Dako, Denmark), and visualized using chemiluminescence (ECL, Amersham Life Science, Little Chalfont, Buckinghamshire, UK). Each gel included two or more lanes containing known quantities of synthetic Aβ which served as internal reference standards. Blot images were captured by a Relisys scanner with transparency adapter (Teco Information Systems, Taiwan, ROC) and densitometry conducted using the NIH Image 1.6 program (National Institutes for Health, USA. Modified for PC by Scion Corporation, Frederick, Md.), calibrated using a step diffusion chart. For quantitation of Aβ in brain extracts, the internal reference standards of synthetic Aβ were utilized to produce standard curves from which values were interpolated.

## C[S+](C)[O-] [DMSO, dimethyl sulfoxide]
[1]
  effect of OH. scavengers on OH. generation by Aβ1-42: neither were able to quench

## OC[C@@H](O)[C@@H](O)[C@H](O)[C@H](O)CO [mannitol]
[2]
  effect on Cu^2+-induced SDS-resistant Aβ polymerization: abolishes the polymerization
[1]
  effect of OH. scavengers on OH. generation by Aβ1-42: neither were able to quench

## bathocuproinedisulfonic acid [BC]
[3]; Cu^2+
  Stability constant logK10, Cu^2+: 6.1
[3]; Cu^+
  Stability constant logK10, Cu^+: 19.1
[4]
  Stability constant logK10, Co: 4.2
[5]
  Stability constant logK10, Zn: 4.1
[2]
  effect on Cu^2+-induced SDS-resistant Aβ polymerization: marked decrease in polymerization
[6]; chelator 0.001 mM
  Residual Al in extracted pellet: 88 mg/kg
  Residual Ca in extracted pellet: 1306 mg/kg
  Residual Cu in extracted pellet: 13 mg/kg
  Residual Fe in extracted pellet: 275 mg/kg
  Residual Mg in extracted pellet: 225 mg/kg
  Residual Zn in extracted pellet: 47 mg/kg
[6]; chelator 0.004 mM
  Residual Al in extracted pellet: 33 mg/kg
  Residual Ca in extracted pellet: 489 mg/kg
  Residual Cu in extracted pellet: 12 mg/kg
  Residual Fe in extracted pellet: 231 mg/kg
  Residual Mg in extracted pellet: 234 mg/kg
  Residual Zn in extracted pellet: 47 mg/kg
[6]; chelator 0.01 mM
  Residual Al in extracted pellet: 73 mg/kg
  Residual Ca in extracted pellet: 762 mg/kg
  Residual Cu in extracted pellet: 13 mg/kg
  Residual Fe in extracted pellet: 256 mg/kg
  Residual Mg in extracted pellet: 223 mg/kg
  Residual Zn in extracted pellet: 49 mg/kg
[6]; chelator 0.04 mM
  Residual Al in extracted pellet: 38 mg/kg
  Residual Ca in extracted pellet: 753 mg/kg
  Residual Cu in extracted pellet: 15 mg/kg
  Residual Fe in extracted pellet: 248 mg/kg
  Residual Mg in extracted pellet: 226 mg/kg
  Residual Zn in extracted pellet: 56 mg/kg
[6]; chelator 2.0 mM
  Residual Al in extracted pellet: 42 mg/kg
  Residual Ca in extracted pellet: 1602 mg/kg
  Residual Cu in extracted pellet: 14 mg/kg
  Residual Fe in extracted pellet: 271 mg/kg
  Residual Mg in extracted pellet: 254 mg/kg
  Residual Zn in extracted pellet: 49 mg/kg
[6]; chelator 5.0 mM
  Residual Al in extracted pellet: 38 mg/kg
  Residual Ca in extracted pellet: 912 mg/kg
  Residual Cu in extracted pellet: 15 mg/kg
  Residual Fe in extracted pellet: 249 mg/kg
  Residual Mg in extracted pellet: 238 mg/kg
  Residual Zn in extracted pellet: 53 mg/kg
[7]
  effect on H2O2 formation by Aβ1-42: substantially inhibited; also recorded: inhibited H2O2 formation
[8]
  % of total Aβ extracted: 3.1% and 7.2% and 6%
  % of total Aβ extracted, + PBS: 2.36% and 5.4% and 3.7%
  Extractable Aβ (% of total), X (mean): (5.4) %
  Extractable Aβ, X (mean): 4.10 µg/g
  X C/PBS (mean chelator / PBS): 3.90
  concentration response of Aβ solubilization: typical concentration-dependent response with no decline in effectiveness
  mean increase of Aβ solubilization over PBS alone: around 4 fold
[9]; AC subject 1, chelator 2 mM
  Extractable Aβ: 0.03 µg/g
  Extractable Aβ (% of total): (5) %
[9]; AC subject 2, chelator 2 mM
  Extractable Aβ: 0.24 µg/g
  Extractable Aβ (% of total): (5.7) %
[9]; AC subject 3, chelator 2 mM
  Extractable Aβ: 0.29 µg/g
  Extractable Aβ (% of total): (11.0) %
[9]; AC subject 4, chelator 2 mM
  Extractable Aβ: 0.08 µg/g
  Extractable Aβ (% of total): (2.6) %
[9]; AC subject 5, chelator 2 mM
  Extractable Aβ: 0.98 µg/g
  Extractable Aβ (% of total): (27.2) %
[9]; AC subjects 1-5, chelator 2 mM
  Extractable Aβ (% of total), X (mean): (10.3) %
  Extractable Aβ, X (mean): 0.32 µg/g
[9]; age-matched control tissue, chelator 2 mM
  X C/PBS (mean chelator / PBS): 1.28
[9]; non-demented, aged-matched controls
  effect on Aβ solubilization compared with AD tissue: much reduced
